Results reported in US20260174875A1 (Novo Nordisk A/S, priority 2023, published 2026).

Test: Chemical stability assessment in formulation (UPLC-UV-MS purity loss at 37° C.)
Type: physicochemical
Conditions: 8 mM phosphate buffer pH 7.4, 1 mg/mL, 2 weeks
Method: The assay was performed to investigate the extend of chemical degradation in vitro over time upon incubation at 37° C. for a period of 2 weeks.
Peptide solutions were prepared by dissolving freeze-dried powder in 8 mM phosphate buffer pH 7.4 to a target of 1 mg/mL. The pH of peptide solutions was adjusted to 7.4 with 0.02 M HCl or 0.02 M NaOH. Samples were filled in Agilent HPLC vials with fixed insert. Vials were capped to prevent evaporation. The HPLC vials were incubated at 37° C. and samples were withdrawn at different time points over a period of 2 weeks, flash frozen at −80° C., and stored at −20° C. until analysis.
A flow-rate of 100 μL/min was delivered with a Binary solvent manager pump having 0.1% formic acid in water as solvent A and 0.1% formic acid in acetonitrile as solvent B. Gradient elution was carried out using 20% B from 0 to 2 min followed by 20 to 50% B from 2 to 20 min in a total run time of 30 min.

Compound: CC[C@H](C)[C@H](NC(=O)[C@H](CCC(=O)O)NC(=O)[C@H](CCC(=O)O)NC(=O)[C@H](CC(C)C)NC(=O)[C@H](CC(C)C)NC(=O)[C@@H](NC(=O)[C@H](CO)NC(=O)[C@H](Cc1ccc(O)cc1)NC(=O)[C@H](CC(=O)O)NC(=O)[C@H](CO)NC(=O)[C@@H](NC(=O)[C@H](Cc1ccccc1)NC(=O)[C@@H](NC(=O)CNC(=O)[C@H](CCC(=O)O)NC(=O)C(C)(C)NC(=O)[C@@H](N)Cc1ccc(O)cc1)[C@@H](C)O)[C@@H](C)O)[C@@H](C)CC)C(=O)N[C@@H](C)C(=O)N[C@@H](C)C(=O)N[C@@H](CCCNC(=N)N)C(=O)N[C@@H](CCC(=O)O)C(=O)N[C@@H](Cc1ccccc1)C(=O)N[C@H](C(=O)N[C@@H](CCC(=O)O)C(=O)N[C@@H](Cc1c[nH]c2ccccc12)C(=O)N[C@@H](CC(C)C)C(=O)N[C@@H](CC(C)C)C(=O)N[C@@H](C)C(=O)NCC(=O)NCC(=O)N1CCC[C@H]1C(=O)N[C@@H](CO)C(=O)N[C@@H](CO)C(=O)NCC(=O)N[C@@H](C)C(=O)NCC(=O)N[C@@H](CCC(N)=O)C(=O)N[C@@H](C)C(=O)N1CCC[C@H]1C(=O)NCC(=O)N[C@@H](CCC(N)=O)C(=O)N[C@@H](C)C(=O)N1CCC[C@H]1C(=O)NCC(=O)N[C@@H](C)C(=O)N[C@@H](CO)C(=O)N[C@@H](Cc1c[nH]cn1)C(=O)N[C@@H](CC(C)C)C(=O)N[C@@H](CO)C(=O)N[C@H](C(=O)N[C@@H](C)C(=O)N[C@@H](CCC(N)=O)C(=O)N[C@H](C(=O)N[C@@H](CCC(N)=O)C(=O)N[C@@H](CCCNC(=N)N)C(=O)N[C@@H](CC(C)C)C(=O)N[C@@H](CO)C(=O)N[C@@H](C)C(=O)N[C@@H](CCC(=O)O)C(=O)N[C@@H](CC(C)C)C(=O)N[C@@H](Cc1c[nH]cn1)C(=O)N[C@@H](CCCCNC(=O)COCCOCCNC(=O)COCCOCCNC(=O)CC[C@H](NC(=O)CCCCCCCCCCCCCCCCCCC(=O)O)C(=O)O)C(=O)N[C@@H](CC(C)C)C(=O)N[C@@H](C)C(=O)N[C@H](C(=O)N[C@@H](CCC(=O)O)C(=O)N1CCC[C@H]1C(=O)N[C@@H](CCCNC(=N)N)C(=O)N[C@H](C(=O)N[C@@H](CCC(=O)O)C(=O)N[C@H](C(=O)NCC(=O)N[C@@H](CO)C(=O)NCC(=O)N[C@@H](CO)C(=O)N1CCC[C@H]1C(N)=O)[C@@H](C)O)[C@@H](C)O)[C@@H](C)O)[C@@H](C)O)[C@@H](C)O)[C@@H](C)CC [Compound 162]
- Purity loss per week at 37° C.: 1.0%
